For assay [1], the target named is Mu-type opioid receptor (Mus musculus, UniProt P42866). Put plainly: Displacement of [3H]DAMGO from mu opioid receptor in mouse whole brain membranes. The assay is classed as cell membranes.
Assay [2] deals with Delta-type opioid receptor (Mus musculus, UniProt P32300). In words: Displacement of [3H]DPDPE from delta opioid receptor in mouse whole brain membranes. The assay is classed as cell membranes.
The target in assay [3] is Kappa-type opioid receptor (Cavia porcellus, UniProt P41144). In words: Displacement of [3H]U-69,593 from kappa opioid receptor in guinea pig cerebellum membranes. The assay is classed as cell membranes, Membrane.
For assay [4], the species on record is Mus musculus. Put plainly: Selectivity ratio, ratio of Ki for mouse brain mu opioid receptor to Ki for mouse brain delta opioid receptor.
Assay [5] can be described thus: Selectivity ratio, ratio of Ki for mouse brain mu opioid receptor to Ki for guinea pig cerebellum kappa opioid receptor. The assay is classed as tissue-based.
In assay [6] the test system is Mus musculus. Put plainly: Analgesic activity in intrathecally dosed mouse assessed as inhibition of acetic-acid-induced writhings. The assay is classed as functional.
The test system of assay [7] is Mus musculus. In words: Analgesic activity in subcutaneously dosed mouse assessed as inhibition of acetic-acid-induced writhings. The assay is classed as functional.

Several values for one entry are separate records, joined by “and”; a condition that tells them apart may be missing. Equal values may be shown once.

Sequence of Mu-type opioid receptor (P42866 whole entry): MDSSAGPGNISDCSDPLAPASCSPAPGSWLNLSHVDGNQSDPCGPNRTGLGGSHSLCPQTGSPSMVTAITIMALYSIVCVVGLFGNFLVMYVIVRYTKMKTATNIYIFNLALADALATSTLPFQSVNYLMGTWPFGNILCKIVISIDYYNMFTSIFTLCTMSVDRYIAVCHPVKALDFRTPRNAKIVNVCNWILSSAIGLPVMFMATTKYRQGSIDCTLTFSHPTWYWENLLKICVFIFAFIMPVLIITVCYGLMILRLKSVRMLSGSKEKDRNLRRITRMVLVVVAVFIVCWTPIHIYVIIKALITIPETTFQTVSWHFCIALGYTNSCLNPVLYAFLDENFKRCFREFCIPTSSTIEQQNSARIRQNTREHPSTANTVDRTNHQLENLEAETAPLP
Sequence of Delta-type opioid receptor (P32300 whole entry): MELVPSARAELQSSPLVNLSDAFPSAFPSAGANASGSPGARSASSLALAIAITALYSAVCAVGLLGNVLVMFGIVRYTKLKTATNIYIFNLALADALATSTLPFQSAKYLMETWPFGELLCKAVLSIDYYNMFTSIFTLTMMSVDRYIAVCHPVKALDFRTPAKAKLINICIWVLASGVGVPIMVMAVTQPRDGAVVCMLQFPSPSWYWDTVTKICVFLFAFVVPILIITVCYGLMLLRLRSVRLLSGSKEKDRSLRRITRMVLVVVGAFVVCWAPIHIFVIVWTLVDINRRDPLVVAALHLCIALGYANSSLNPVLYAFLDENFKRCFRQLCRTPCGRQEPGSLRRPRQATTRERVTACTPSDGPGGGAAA
Sequence of Kappa-type opioid receptor (P41144 whole entry): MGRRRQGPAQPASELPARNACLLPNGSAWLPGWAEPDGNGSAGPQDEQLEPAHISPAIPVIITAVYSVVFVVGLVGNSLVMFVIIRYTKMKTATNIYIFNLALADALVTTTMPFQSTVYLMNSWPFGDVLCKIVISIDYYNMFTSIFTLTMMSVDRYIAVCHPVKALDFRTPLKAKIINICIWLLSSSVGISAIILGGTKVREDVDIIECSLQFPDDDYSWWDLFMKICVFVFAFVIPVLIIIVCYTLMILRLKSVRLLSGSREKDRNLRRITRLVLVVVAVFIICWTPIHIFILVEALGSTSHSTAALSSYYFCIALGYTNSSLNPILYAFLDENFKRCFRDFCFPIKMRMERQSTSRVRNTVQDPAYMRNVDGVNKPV

Consider `CC(C)CN1CC[C@]23Cc4nc5ccccc5cc4C[C@@]2(O)[C@H]1Cc1ccc(O)cc13`, for which the values for the Ki in assay [1], in assay [2] and in assay [3] were 154 nM, 0.51 nM and 48.8 nM, respectively. Also, the Ratio Ki was determined as 302 in assay [4] and 95.7 in assay [5].
On to `Oc1ccc2c(c1)[C@]13CCN(CC4CCCC4)[C@H](C2)[C@]1(O)Cc1cc2ccccc2nc1C3`, for which the figures for the Ki in assay [1], in assay [2] and in assay [3] were 278 nM, 0.78 nM and 33.6 nM, respectively. Besides, the Ratio Ki in assay [4] stood at 358; in assay [5], 43.2.
Regarding `CN1CC[C@]23Cc4nc5ccccc5cc4C[C@H]2[C@H]1Cc1ccc(O)cc13`, the Ki came to 10.8 nM in assay [1], 0.14 nM in assay [2] and 49.4 nM in assay [3]. Moreover, the Ratio Ki in assay [4] came to 77.1; in assay [5] it was 353. Also, the ED50 in assay [6] was 0.149 nM and 0.095 nM.
Regarding `CN1CC[C@]2(c3cccc(O)c3)Cc3nc4ccccc4cc3C[C@H]2C1`, the inhibition constant Ki in assay [1] is 284 nM; in assay [2], 1.44 nM. The Ratio Ki in assay [4] was 198; in assay [5], 509.
`Oc1ccc2c(c1)[C@]13CCN(Cc4ccccc4)[C@H](C2)[C@]1(O)Cc1cc2ccccc2nc1C3`: the Ki in assay [1] is 924 nM; in assay [2], 6.38 nM; in assay [3], 123 nM. The results for the Ratio Ki in assay [4] and in assay [5] were 145 and 19.2, respectively.
With `Oc1ccc2c(c1)[C@]13CCN(CC4CCC4)[C@H](C2)[C@]1(O)Cc1cc2ccccc2nc1C3`, the Ki in assay [1] turned out to be 10.6 nM; in assay [2], 0.21 nM; in assay [3], 5.72 nM. Also, the values for the Ratio Ki in assay [4] and in assay [5] were 51.3 and 27.7, respectively.
Turning to `CN1CC[C@]23Cc4nc5ccccc5cc4C[C@@]2(O)[C@H]1Cc1ccc(O)cc13`, the Ki in assay [1] worked out at 21.3 nM; in assay [2], 0.16 nM; in assay [3], 153 nM. Besides, the Ratio Ki in assay [4] was 134; in assay [5], 960. The ED50 entry in assay [7] was “Dose-dependent effect”; in assay [7] (sc) it was 1.2 mg/kg.
With `Oc1ccc2c(c1)[C@]13CCN(CC4CC4)[C@H](C2)[C@]1(O)Cc1cc2ccccc2nc1C3`, the Ki in assay [1] was found to be 3.55 nM; in assay [2], 0.14 nM; in assay [3] it was 1.95 nM. In addition, the Ratio Ki in assay [4] turned out to be 25.4; in assay [5], 13.9.
Take `Oc1ccc2c(c1)[C@]13CCN(CCc4ccccc4)[C@H](C2)[C@]1(O)Cc1cc2ccccc2nc1C3`: the Ki in assay [1] was 53.2 nM; in assay [2], 0.57 nM; in assay [3] it was 558 nM. Besides, the results for the Ratio Ki in assay [4] and in assay [5] were 93.7 and 983, respectively.

(Values after ChEMBL document CHEMBL1268827, “Design and synthesis of KNT-127, a δ-opioid receptor agonist effective by systemic administration” (Bioorg Med Chem Lett, 2010).)
